The target in the assay is T1, Tyrosinase (Agaricus bisporus, UniProt O42713).
T1 sequence (O42713 whole entry): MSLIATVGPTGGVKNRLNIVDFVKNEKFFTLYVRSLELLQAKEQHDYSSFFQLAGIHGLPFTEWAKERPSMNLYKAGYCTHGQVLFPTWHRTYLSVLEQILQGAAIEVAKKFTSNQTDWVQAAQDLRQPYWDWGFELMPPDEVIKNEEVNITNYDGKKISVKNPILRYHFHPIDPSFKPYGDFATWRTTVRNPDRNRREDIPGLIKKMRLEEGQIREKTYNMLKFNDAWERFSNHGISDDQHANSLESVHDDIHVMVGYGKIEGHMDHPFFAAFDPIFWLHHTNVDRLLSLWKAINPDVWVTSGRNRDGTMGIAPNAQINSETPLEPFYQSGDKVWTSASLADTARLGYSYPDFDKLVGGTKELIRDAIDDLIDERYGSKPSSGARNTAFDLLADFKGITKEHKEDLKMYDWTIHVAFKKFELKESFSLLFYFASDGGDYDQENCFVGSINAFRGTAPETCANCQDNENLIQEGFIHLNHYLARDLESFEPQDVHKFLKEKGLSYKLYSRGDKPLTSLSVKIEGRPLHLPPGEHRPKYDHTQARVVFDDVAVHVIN

pIC50: −log10 of the molar value.

Description: Inhibition of mushroom tyrosine kinase assessed as oxidation of 0.25 mM L-3,4-dihydroxyphenylalanine

For `Oc1cccc(O)c1` [RESORCINOL], the pIC50 (as a rule, the negative decadic logarithm of the IC50, by convention in mol/L) was 2.84.
Regarding `CCCCCCc1ccc(O)cc1O` [HEXYLRESORCINOL], the pIC50 was 6.01.

The values above are taken from ChEMBL document CHEMBL1139320, “PEG-immobilization of cardol and soluble polymer-supported synthesis of some cardol-coumarin derivatives: preliminary evaluation of their inhibitory activity on mushroom tyrosinase” (Bioorg Med Chem Lett, 2009).
